{"source": "patent US20210386828A1", "about": "“METHODS FOR ENHANCING CANCER IMMUNOTHERAPY” (The Regents of the University of California, priority 2018, published 2021)", "key": {"Myc-CaP cells [1]": {"test_system": "Myc-CaP cells", "experiment": "Surface MHC (H-2Kq) expression by flow cytometry", "format": "cell-based, mouse", "details": "for surface expression of H-2Kq: agent as named; for effect on the H-2Kq response to IFNγ: platinoid plus IFNγ", "excerpt": "(§1) Each dot represents an experiment and horizontal lines denote the median."}, "Myc-CaP cells [2]": {"test_system": "Myc-CaP cells", "experiment": "qRT-PCR of MHC-I component mRNAs in Myc-CaP cells", "format": "cell-based, mouse", "details": "for effect of exogenous IFNγ on induction of MHC-I antigen presentation and processing genes by the platinoid: plus IFNγ", "excerpt": "as §1"}, "Myc-CaP cells [3]": {"test_system": "Myc-CaP cells", "description": "CRISPR-Cas9 was used to ablate cyclic GMP-AMP synthase (cGAS, encoded by Mb21d1) and Ifnar2 (FIG. 11K)."}, "[4]": {"test_system": "Myc-CaP and TRAMP-C2 cells", "experiment": "RNA-seq of mouse PCa cells incubated with platinoids", "format": "cell-based", "details": "2 μM, Myc-CaP", "protocol": "FIGS. 1E-1G show total RNA from Myc-CaP cells incubated with indicated agents for 24 hr was subjected to RNA-seq. Top 20 hallmark gene sets were sorted by normalized enrichment score (NES). Immune-related gene sets are in blue (IFNγ signaling in light blue).\nThe top 20 hallmark gene sets sorted by normalized enrichment score (NES) are shown to depict the Oxali- and Cis-induced responses determined by GSEA analysis. Immune-related gene sets are colored blue (IFNγ signaling in light blue). […] Immune-related gene sets are in blue (IFNγ signaling in light blue).\nTo investigate how low-dose Oxali affects the PCa transcriptome, RNA sequencing (RNA-seq) was conducted on mouse PCa cells (Myc-CaP and TRAMP-C2) incubated with 2 μM of either Oxali or Cisplatin (Cis), a platinoid that, unlike Oxali, minimally enhances the response to PD-L1 blockade or ISP ablation (Pfirschke et al., 2016; Shalapour et al., 2015)."}, "Myc-CaP cells [5]": {"test_system": "Myc-CaP cells", "experiment": "Immunoblot of IRF1 and phosphorylated STAT1", "format": "cell-based, mouse", "excerpt": "Protein loading was confirmed with tubulin antibodies.\nThe basis for the synergy between low-dose Oxali and IFNγ was investigated. […] Given the ability of Oxali to induce Ifngr2 mRNA expression, not only in Myc-CaP cells (FIG. 2D) but also in mouse and human melanoma cell lines (FIGS. 11C and 11D), it was postulated that the synergistic activation of IRF1 and STAT1 by Oxali plus IFNγ may be due to IFNγR2 induction."}, "Myc-CaP cells [6]": {"test_system": "Myc-CaP cells", "experiment": "Nuclear abundance of transcription factors (IB, flow cytometry)", "format": "cell-based, mouse", "details": "2 μM Oxali"}, "[7]": {"details": "cells incubated with Oxali or Oxali+IFNγ"}}}
{"smiles": "N.N.O=C([O-])C1(C(=O)[O-])CCC1.[Pt+2]", "note": "[Carbo, carboplatin]", "values": [{"measurement": "surface expression of H-2Kq", "setting": "Myc-CaP cells [1]", "value": "barely induced surface H-2Kq"}, {"measurement": "effect on the H-2Kq response to IFNγ", "setting": "Myc-CaP cells [1]", "value": "potentiated the response to IFNγ"}, {"measurement": "effect of exogenous IFNγ on induction of MHC-I antigen presentation and processing genes by the platinoid", "setting": "Myc-CaP cells [2]", "value": "not as strong as that of Oxali+IFNγ"}]}
{"smiles": "COc1c(Cl)cc2c([nH]c3cnccc32)c1NC(=O)c1cccnc1C", "note": "[ML120B]", "values": [{"measurement": "H-2Kq surface expression under IKKβ inhibition", "setting": "Myc-CaP cells [1]; [7]", "value": "reduced"}, {"measurement": "synergistic Psmb9 and Nlrc5 mRNA induction under IKKβ inhibition", "setting": "Myc-CaP cells [2]; Oxali+IFNγ", "value": "attenuated"}, {"measurement": "decrease in Ifngr2 mRNA", "setting": "Myc-CaP cells [2]; [7]", "value": 4, "unit": "fold"}]}
{"smiles": "N.N.[Cl][Pt][Cl]", "note": "[Cis, Cisplatin]", "values": [{"measurement": "γH2AX, marker of DNA damage", "setting": "Myc-CaP cells [3]", "value": "γH2AX induction"}, {"measurement": "induction of gene set responsive to NF-κB-dependent TNF signaling", "setting": "[4]", "value": "strongly induced"}, {"measurement": "effect on IRF1 induction by IFNγ", "setting": "Myc-CaP cells [5]; added to IFNγ", "value": "strongly potentiated"}, {"measurement": "STAT1 phosphorylation", "setting": "Myc-CaP cells [5]; added to IFNγ-treated cells", "value": "dramatically increased"}, {"measurement": "nuclear abundance of p65, NF-κB, CREB1, ATF3, P-ATM and JunB", "setting": "Myc-CaP cells [6]", "value": "more transient and weaker effect"}, {"measurement": "surface expression of H-2Kq", "setting": "Myc-CaP cells [1]", "value": "barely induced surface H-2Kq"}, {"measurement": "effect on the H-2Kq response to IFNγ", "setting": "Myc-CaP cells [1]", "value": "potentiated the response to IFNγ"}, {"measurement": "effect of exogenous IFNγ on induction of MHC-I antigen presentation and processing genes by the platinoid", "setting": "Myc-CaP cells [2]", "value": "not as strong as that of Oxali+IFNγ"}]}
